{"source": "patent US20070244200A1", "about": "“Method for triggering angiogenic response” (priority 2006, published 2007)", "system": "rabbit aortic endothelial cells (RAEC)", "assay": "Cord formation on Matrigel (in vitro angiogenesis assay)", "type": "cell-based", "conditions": "18-24 h; for Percent Increase in Cord length, Set I / Percent Increase in Cord length, Set II / Percent Increase in Cord length, Set III: individual picture scores; for Percent Increase in Cord length, Mean: mean of 18 scores", "description": "In carrying this invention, materials needed in this example include commercially available items as follows: a 96 Well Plate, for example, flat bottom 96 well plate (Falcon 353072); Media-BM-2 (Clonetics CC-3162), DMEM (Gibco Cat#11960044); Matrigel-Beckton Dickinson (Cat#40234); Cells; HUVEC (2×10^6/ml) in EBM-2 in EBM-2; and Image Analysis-Image-Pro Plus In this example, the assay is performed under hood is, a Laminar Flow Hood. Frozen Matrigel (Beckton Dickinson 40234) is placed overnight on ice to thaw. Then, a concentration of matrigel is adjusted to 10 mg/ml using DMEM media. An ice cold 96 well plate is then placed on ice in a flat dish. Using an ice cold tip, gently layer 60 μl of matrigel (10 mg/ml; kept on ice) in each well. Gently tap the plate so that matrigel is evenly distributed in each well. The assay thereafter involves the following steps and protocols of: Removing the ice under the plate and incubate the plate for 15 min at room temperature; transfer the plate to a 37° C. incubator for at least 30 min for the Matrigel to polymerize; prepare methanandamide at 2X the desired concentration in culture media; harvest RAEC (rabbit aortic endothelial cells) in culture media and adjust the cell density to 2×10^5/ml; mix 500 μl of drug with 500 μl of cell suspension and place 200 μl of this suspension in duplicate wells on polymerized matrigel (being cautious to not touch matrigel with the tip and to dispense cells very gently and slowly on the matrigel to avoid damage to matrigel layer); incubate the compound concentration in a 37° C. humidified incubator for 18-24 h observe condition of cords under a microscope.; take at least three pictures (10 X) from different fields from each well (or six pictures from duplicate wells); count number of junctions and tube length (mm) from each picture using Image Pro Image Analysis System; and analyze the data.\nIn accordance with a preferred embodiment of the present invention, the effect of methanandamide on rabbit aortic endothelial cells (RAEC) was tested for its ability to induce cord formation on matrigel. This process entails an accepted in vitro assay for angiogenesis. The procedures involve analyses with three different concentrations of methanandamide compound and repeated the experiments three different times in duplicate. As mentioned earlier above in the protocol, the 3 pictures from each well were taken. Therefore, for each concentration (data point) we have 18 scores. The analysis entails the measure of two parameters: (1) cord length; and (2) cord junction number.\nIn FIG. 1, there is shown representations for eighteen (18) scores of data points for each concentration of methanandamide compound analyzed. The scores indicated for each concentration of methanandamide resulted from three different concentrations of methanandamide, i.e. 10 nM, 50 nM, and 100 nM. Three (3) pictures taken from each field or well (Six (6) pictures for duplicate wells). Each treatment or analysis was done in duplicate in 3 separate sets, i.e., Set I, Set II, and Set III. Therefore, for each concentration data point has eighteen (18) scores (3×2×3=18 data points).", "note": "“And” between values parts separate entries of the source, which are not always exact repeats. Identical values can stand only once.", "data": [{"compound": "CCCCC/C=C\\C/C=C\\C/C=C\\C/C=C\\CCCC(=O)N[C@H](C)CO", "note": "[Methanandamide, methyl arachidonyl ethanolamide]", "values": [{"measurement": "Percent Increase in Cord length, Set I", "setting": "Methanandamide 10 nM", "result": "12% (2×) and 11% and 9% and 13% and 10%"}, {"measurement": "Percent Increase in Cord length, Set II", "setting": "Methanandamide 10 nM", "result": "16% and 21% and 14% and 18% and 13% and 12%"}, {"measurement": "Percent Increase in Cord length, Set III", "setting": "Methanandamide 10 nM", "result": "14% and 10% and 17% (2×) and 13% and 15%"}, {"measurement": "Percent Increase in Cord length, Mean", "setting": "Methanandamide 10 nM", "result": 14, "unit": "%"}, {"measurement": "Percent Increase in Cord length, Set I", "setting": "Methanandamide 50 nM", "result": "17% and 22% and 25% and 32% (2×) and 19%"}, {"measurement": "Percent Increase in Cord length, Set II", "setting": "Methanandamide 50 nM", "result": "17% and 26% and 22% (2×) and 28% and 18%"}, {"measurement": "Percent Increase in Cord length, Set III", "setting": "Methanandamide 50 nM", "result": "34% and 25% and 30, 30, Percent (2×) and 26% and 35%"}, {"measurement": "Percent Increase in Cord length, Mean", "setting": "Methanandamide 50 nM", "result": 25, "unit": "%"}, {"measurement": "Percent Increase in Cord length, Set I", "setting": "Methanandamide 100 nM", "result": "45% and 42% (2×) and 39% and 47% and 40%"}, {"measurement": "Percent Increase in Cord length, Set II", "setting": "Methanandamide 100 nM", "result": "37% and 41% and 44% (2×) and 32% and 34%"}, {"measurement": "Percent Increase in Cord length, Set III", "setting": "Methanandamide 100 nM", "result": "38% and 42% and 44% and 47% and 36% and 34%"}, {"measurement": "Percent Increase in Cord length, Mean", "setting": "Methanandamide 100 nM", "result": 40, "unit": "%"}]}]}
